The results in this text go back to patent publication US20020127263A1, “Peroxisome proliferator-acitvated receptor gamma ligand eluting medical device” (priority 2001, published 2002).

One series has as its system HCASMCs. The series is described as follows: Ciglitazone cytotoxicity against HCASMCs (lactate dehydrogenase). Format: cell-based, Human. As to conditions: HCASMC, 0.001 μg/mL to 10 μg/mL Ciglitazone, after 24 hours, FIG. 1c. How it is done:
Ciglitazone cytotoxicity against HCASMCs was evaluated by seeding 24 well cell culture plates with 5.0×10^5HCASM cells/mL of cell culture media containing from 0.001 μg/mL to 10 μg/mL of Ciglitazone. Samples were taken after 24 hours and tested for lactate dehydrogenase […] concentration using methods known to those having ordinary skill in the art. Elevated LDL levels indicates cytotoxicity. FIG. 1c graphically depicts the cytotoxicity testing results.

For series [1], the system named is Human coronary artery endothelial cells (HCAEC). Briefly: HCAEC proliferation inhibition by Ciglitazone. It is filed as cell-based. The settings on record: Endothelial cell, day four, both cell culture schemes, FIG. 2a. How it is done: Human coronary artery endothelial cells (HCAEC) were seeded in 24 well polystyrene tissue culture plates at a density of 5×10^3 cells per well. Two different feeding strategies and reading strategies were employed. Strategy 1: Cells were plated in cell culture media containing various concentrations of Ciglitazone and incubated at 37° C. for 48 hours. After the initial 48 hour incubation, the Ciglitazone containing plating media was changed and the cells were fed with drug free media and incubated for an additional 48 hours and then read. Strategy 2: Cells were plated in cell culture media containing various concentrations of Ciglitazone and incubated at […] for 48 hours. After the initial 48 hour incubation, the Ciglitazone-containing plating media was changed and the cells were fed with Ciglitazone-containing media and incubated for an additional 48 hours and then read. On day four cultures were analyzed to determine the proliferation inhibition effects of Ciglitazone. […] graphically depicts the percent inhibition at Ciglitazone levels between 0.001 μg/mL to 50 μg/mL for both cell culture schemes. It can be seen from FIG. 2a that significant HCAEC inhibition (>50% inhibition) begins at a dosage of 5 μg/mL and rises dramatically to nearly 100% at 10 μg/mL. FIG. 2b graphically depicts the same results in bar graph form based on cell counts.

The subject of the next series is HCAECs. Briefly: Ciglitazone cytotoxicity against HCAECs (lactate dehydrogenase). It is filed as cell-based, Human. As to conditions: HCAEC, 0.001 μg/mL to 10 μg/mL Ciglitazone, after 24 hours, FIG. 2c. On the procedure:
Ciglitazone cytotoxicity against HCAECs was evaluated by seeding 24 well cell culture plates with 5.0×10^5 HCAE cells/mL of cell culture media containing from 0.001 μg/mL to 10 μg/mL of Ciglitazone. Samples were taken after 24 hours and tested for lactate dehydrogenase […] concentration using methods known to those having ordinary skill in the art. Elevated LDL levels indicate cytotoxicity. FIG. 2c graphically depicts the cytotoxicity testing results.

The subject of series [2] is Human coronary smooth muscles cells (HCASMC). The series is described as follows: HCASMC proliferation inhibition by Ciglitazone. It is filed as cell-based. As to conditions: day four, both cell culture schemes, FIG. 1a. On the procedure: Human coronary smooth muscles cells (HCASMC) were seeded in 24 well polystyrene tissue culture plates at a density of 5×10^3 cells per well. Two different feeding and reading strategies were employed. Strategy 1: Cells were plated in cell culture media containing various concentrations of Ciglitazone and incubated at 37° C. for 48 hours. After the initial 48 hour incubation, the Ciglitazone containing plating media was changed and the cells were fed with drug free media and incubated for an additional 48 hours and then read. Strategy 2: Cells were plated in cell culture media containing various concentrations of Ciglitazone and incubated at […] for 48 hours. After the initial 48 hour incubation, the Ciglitazone-containing plating media was changed and the cells were fed with Ciglitazone-containing media and incubated for an additional 48 hours and then read. On day four cultures were analyzed to determine the proliferation inhibition effects of Ciglitazone. FIG. 1a graphically depicts the percent inhibition at Ciglitazone levels between 0.001 μg/mL to 50 μg/mL for both cell culture schemes. It can be seen from FIG. 1a that significant HCASMC inhibition (>50% inhibition) begins at a dosage of 10 μg/mL and rises dramatically to nearly 100% at 50 μg/mL. FIG. 1b graphically depicts the same results in bar graph form based on cell counts.

A value given as a limit tells only on which side of the number the result lay.

In the case of `CC1(COc2ccc(CC3SC(=O)NC3=O)cc2)CCCCC1` (stereo not drawn) [Ciglitazone], the “cytotoxicity (lactate dehydrogenase concentration)” value in the series on HCASMCs and in the series on HCAECs was “No cytotoxicity was detected” in each case. The inhibition at 5 µg/mL in series [1] (5 μg/mL Ciglitazone) is greater than 50%. For the same compound, the inhibition at 10 µg/mL in series [1] (10 μg/mL Ciglitazone) was roughly 100%; in series [2] (10 μg/mL Ciglitazone), greater than 50%. The inhibition at 50 µg/mL in series [2] (50 μg/mL Ciglitazone) was roughly 100%.

As a reminder, the inhibition is the percentage by which the read-out fell short of the control. A low value points to a response near the control.
